Measurements as given in patent publication US8586522B2, “Glycol dilevulinates as coupling agents in cleaning formulations” (Dow Global Technologies LLC, priority 2011, dated 2013).

Key:
[1] = Coupling effectiveness / phase stability with d-limonene (Sets I & II); assay type: physicochemical; design: key to appearance of sample formulation (coupling of d-limonene): clear: Clear indicates successful coupling of the d-limonene; cloudy indicates poor or no coupling; conditions: for effectiveness at coupling d-limonene: absence of surfactant (0% SLS); for appearance of sample formulation (coupling of d-limonene): 20% coupling agent, Column 6; for d-limonene level successfully coupled: 1% SLS, solvent at a 20% level, highest d-limonene level tested
Method: Two sets of experiments (I & II) were performed to determine the relative coupling effectiveness of fragrance (d-limonene)-containing aqueous formulations having various traditional coupling agents (glycol ethers) and those having various alkylene glycol dilevulinates as the coupling agents, at various temperatures (5° C., room temperature (25° C.) and 40° C.). The details are provided below and the results are shown in diagrams provided in FIGS. 1-16 and explained hereinbelow.
Stock solutions were prepared that contained the main components which didn't change throughout these experiments. Each formulation contained the following standard ingredients: […]
With reference now to the figures, FIGS. 1-8 relate to the Set of Comparative Examples. Each circle represents one sample formulation. More particularly, each of FIGS. 1 & 5 provide a schematic grid diagram of the general layout of sample formulations having various types of glycol ethers as coupling agents and various amounts of d-limonene fragrance, in the presence of 1% SLS surfactant and absence (0% SLS) of surfactant.
FIGS. 2-4 & 6-8 show the results (clear/white or cloudy/black) for the sample formulations identified in the grids of FIGS. 1 and 5 at 5° C., room temperature (25° C.), and 40° C., respectively. Clear indicates successful coupling of the d-limonene and cloudy indicates poor or no coupling.
FIGS. 9-16 relate to the Set II of Working Examples. As with FIGS. 1-8, each circle represents one sample formulation. More particularly, FIG. 9 provides a schematic grid diagram of the general layout of sample formulations having various types of alkylene glycol dilevulinates as coupling agents and various amounts of d-limonene fragrance. For instance, rows A & B of the grid in FIG. 9 were formulations that each had 0.25% by weight d-limonene. Thus, rows A & B of each of FIGS. 10-12 & 14-16 depict formulations that had 0.25% by weight d-limonene.
FIGS. 10-12 & 14-16 show the results (clear/white or cloudy/black) for the sample formulations identified in the grids of FIGS. 9 & 13 at 5° C., room temperature (25° C.), and 40° C., respectively. Clear indicates successful coupling of the d-limonene and cloudy indicates poor or no coupling.

[2] = Water solubility of alkylene glycol dilevulinates; assay type: physicochemical
Source text: Ethylene glycol dilevulinate (EGDL) is 100% water soluble while 1,2-propylene glycol dilevulinate (1,2-PGDL) is 10% soluble by weight in water, and 1,3-propylene glycol dilevulinate (1,3-PGDL) is 25% soluble. All three compounds also dissolve aromatic hydrocarbon compounds such as toluene and xylene, while having limited solubility for simple aliphatic hydrocarbons such as hexane and cyclohexane. Thus, C2-C3 alkylene glycol dilevulinates appear to provide the greatest benefits when used as coupling agents in water-based cleaning formulations.

SMILES: CC(=O)CCC(=O)OCCCOC(=O)CCC(C)=O [1,3-propylene glycol dilevulinate]
- effectiveness at coupling d-limonene [1]: better than 1,2-propylene glycol dilevulinate

SMILES: CC(=O)CCC(=O)OCCOC(=O)CCC(C)=O [EGDL, ethylene glycol dilevulinate]
- appearance of sample formulation (coupling of d-limonene) ([1]; 5° C. (FIG. 2), 1.5% d-limonene, Row F): clear
- appearance of sample formulation (coupling of d-limonene) ([1]; 40° C., 1.5% d-limonene, Row F): cloudy
- effectiveness at coupling d-limonene [1]: better than 1,2-propylene glycol dilevulinate
- appearance of sample formulation (coupling of d-limonene) ([1]; room temperature (FIG. 3), 1.5% d-limonene, Row F): clear
- water soluble / soluble by weight in water [2]: 100%

SMILES: CCCCCCOCCOCCO [HxCb, diethylene glycol n-hexyl ether]
- d-limonene level successfully coupled [1]: 3%
- appearance of sample formulation (coupling of d-limonene) ([1]; 5° C. (FIG. 2), 0.75% d-limonene, Row D): cloudy
- appearance of sample formulation (coupling of d-limonene) ([1]; 40° C., 0.75% d-limonene, Row D): cloudy
- appearance of sample formulation (coupling of d-limonene) ([1]; room temperature (FIG. 3), 0.75% d-limonene, Row D): clear

SMILES: COC(C)COC(C)CO (centres unmarked) [DOWANOL DPM, dipropylene glycol methyl ether]
- d-limonene level successfully coupled [1]: 3%
- d-limonene level coupled into an aqueous mixture ([1]; absence of added SLS surfactant): more than 0.25%

SMILES: CC(=O)CCC(=O)OCCCOC(=O)CCC(C)=O [1,3-PGDL, 1,3-propylene glycol dilevulinate]
- water soluble / soluble by weight in water [2]: 25%

SMILES: CC(=O)CCC(=O)OCC(C)OC(=O)CCC(C)=O (centres unmarked) [1,2-PGDL, 1,2-propylene glycol dilevulinate]
- water soluble / soluble by weight in water [2]: 10%
